Reference: patent US8501783B2, “Conformationally restricted urea inhibitors of soluble epoxide hydrolase” (The Regents of the University of California, priority 2006, dated 2013)
Several values for one entry are separate records, joined by “and”; a condition that tells them apart may be missing. Equal entries are not always repeated. Where two headings read alike, the source gives them in different places.

Experiments:
human sEH = human sEH (Homo sapiens (Human), UniProt P34913); test: Inhibition of human soluble epoxide hydrolase (IC50; one of three substrate methods); format: biochemical;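 also: enzyme expressed in baculovirus and affinity-purified, assays run in triplicate, with substrate and read-out differing among the three methods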
[1] = Pharmacokinetic screening in dogs, oral administration, plasma LC-MS/MS; conditions: for LC/MS analysis, plasma level at time 0 / LC/MS analysis, plasma level at time 15 / LC/MS analysis, plasma level at time 30 / LC/MS analysis, plasma level at time 60 / LC/MS analysis, plasma level at time 120 / LC/MS analysis, plasma level at time 180 / LC/MS analysis, plasma level at time 240 / LC/MS analysis, plasma level at time 300 / LC/MS analysis, plasma level at time 360 / LC/MS analysis, plasma level at time 480 / LC/MS analysis, plasma level at time 1440: single oral dose (0.3 mg/kg per FIG. 1); for LC/MS analysis, plasma level at time 0: time 0 min; for LC/MS analysis, plasma level at time 15: time 15 min; for LC/MS analysis, plasma level at time 30: time 30 min; for LC/MS analysis, plasma level at time 60: time 60 min; for LC/MS analysis, plasma level at time 120: time 120 min; for LC/MS analysis, plasma level at time 180: time 180 min; for LC/MS analysis, plasma level at time 240: time 240 min; for LC/MS analysis, plasma level at time 300: time 300 min; for LC/MS analysis, plasma level at time 360: time 360 min; for LC/MS analysis, plasma level at time 480: time 480 min; for LC/MS analysis, plasma level at time 1440: time 1440 min
[2] = Solubility in oil of the dosing preparation (compound in Crisco); format: physicochemical; conditions: appearance in oil, in parentheses after compound number
Text: The dogs are fed immediately thereafter.

human sEH, sequence (P34913 whole entry): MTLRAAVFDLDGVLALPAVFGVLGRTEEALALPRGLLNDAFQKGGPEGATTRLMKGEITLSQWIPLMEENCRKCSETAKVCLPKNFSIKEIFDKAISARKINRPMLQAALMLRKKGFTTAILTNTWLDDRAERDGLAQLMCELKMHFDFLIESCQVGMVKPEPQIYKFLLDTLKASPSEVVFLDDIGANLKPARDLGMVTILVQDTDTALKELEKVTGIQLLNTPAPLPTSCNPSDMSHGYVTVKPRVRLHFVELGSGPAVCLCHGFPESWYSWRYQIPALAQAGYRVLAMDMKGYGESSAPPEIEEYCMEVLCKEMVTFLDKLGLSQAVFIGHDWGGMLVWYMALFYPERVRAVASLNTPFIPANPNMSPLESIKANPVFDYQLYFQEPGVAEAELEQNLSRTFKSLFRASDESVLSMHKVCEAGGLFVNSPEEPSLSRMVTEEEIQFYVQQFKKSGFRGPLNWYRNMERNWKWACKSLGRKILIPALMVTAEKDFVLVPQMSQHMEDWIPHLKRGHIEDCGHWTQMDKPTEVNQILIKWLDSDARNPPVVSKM

Structure (SMILES) | IC50 (human sEH; recombinant human sEH) [nM] | LC/MS analysis, plasma level at time 0 ([1]; dogs) | LC/MS analysis, plasma level at time 15 ([1]; dogs) | LC/MS analysis, plasma level at time 30 ([1]; dogs) | LC/MS analysis, plasma level at time 60 ([1]; dogs) | LC/MS analysis, plasma level at time 120 ([1]; dogs) | LC/MS analysis, plasma level at time 180 ([1]; dogs) | LC/MS analysis, plasma level at time 240 ([1]; dogs) | LC/MS analysis, plasma level at time 300 ([1]; dogs) | LC/MS analysis, plasma level at time 360 ([1]; dogs) | LC/MS analysis, plasma level at time 480 ([1]; dogs) | LC/MS analysis, plasma level at time 1440 ([1]; dogs) | solubility in oil [2] | IC50 (human sEH) | AUC ([1]; dog, plasma, po, 0.3 mg/kg) [µM·h] | AUCINF_D_pred ([1]; dogs, oral, dose-normalised) [kg·nM·min/mg]
O=C(NCC1CCN(C(=O)c2ccccc2)CC1)NC12CC3CC(CC(C3)C1)C2 [Compound 1121, N-((1-benzoylpiperidin-4-yl)methyl)-N′-(adamant-1-yl)urea] | 3.2 | 0.00 | 4.86 | 3.81 | 1.98 | 0.42 | 0.16 | 0.06 | 0.05 | 0.03 | 0.03 | 0.04 | 1121 (Not dissolved) |  |  | 
COC(=O)c1ccc(C(=O)N2CCC(NC(=O)NC34CC5CC(CC(C5)C3)C4)CC2)cc1 [Compound 1204, 4-[4-(3-Adamantan-1-yl-ureido)-piperidine-1-carbonyl]-benzoic acid methyl ester] | 1.1 | 0.00 | 0.00 | 0.19 | 0.34 | 0.11 | 0.00 | 0.00 | 0.00 | 0.00 | 0.00 | 0.00 | 1204 (Opaque) |  |  | 
CCCC(=O)N1CCC(NC(=O)NC23CC4CC(CC(C4)C2)C3)CC1 [Compound 1157, N-(1-butyrylpiperidin-4-yl)-N′-(adamant-1-yl)urea] |  | 0.00 | 0.58 | 5.18 | 7.77 | 9.50 | 7.05 | 4.60 | 2.45 | 2.45 | 0.86 | 0.00 | 1157 (Opaque) | 2.6 nM and 2.64 nM | 0.0367 | 7187
